Measurements taken from ChEMBL document CHEMBL3124778, “Structure-based design of new dihydrofolate reductase antibacterial agents: 7-(benzimidazol-1-yl)-2,4-diaminoquinazolines” (J Med Chem, 2014).
Values after ≈ are worked out from the molar mass of the structure shown.

Experiments:
Dihydrofolate reductase [1] = target: Dihydrofolate reductase (Staphylococcus aureus, UniProt P0A017); experiment: Inhibition of Staphylococcus aureus DHFR using dihydrofolate as substrate preincubated for 10 mins followed by substrate addition by spectrophotometric analysis in presence of NADPH
Dihydrofolate reductase [2] = target: T1, Dihydrofolate reductase (Homo sapiens, UniProt P00374); experiment: Inhibition of human DHFR using dihydrofolate as substrate preincubated for 10 mins followed by substrate addition by spectrophotometric analysis in presence of NADPH
T1 sequence (P00374 whole entry): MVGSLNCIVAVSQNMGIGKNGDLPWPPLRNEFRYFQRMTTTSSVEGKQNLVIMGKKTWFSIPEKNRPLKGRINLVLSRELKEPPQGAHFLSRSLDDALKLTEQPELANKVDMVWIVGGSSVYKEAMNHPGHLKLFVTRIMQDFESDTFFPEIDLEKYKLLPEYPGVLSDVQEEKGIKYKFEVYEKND

[3] = Selectivity ratio of Ki for human DHFR to Ki for Staphylococcus aureus DHFR
Staphylococcus aureus [4] = experiment: Antibacterial activity against TMP-resistant Staphylococcus aureus expressing DHFR F99Y mutant after 18 to 24 hrs by alamar Blue assay; assay type: functional
Staphylococcus aureus [5] = experiment: Antibacterial activity against Staphylococcus aureus ATCC 13709 after 18 to 24 hrs by alamar Blue assay; assay type: functional
Staphylococcus aureus [6] = experiment: Antibacterial activity against Staphylococcus aureus ATCC 13709 after 18 to 24 hrs by alamar Blue assay in presence of 20% heat inactivated mouse serum; assay type: functional
Streptococcus pneumoniae [7] = experiment: Antibacterial activity against Streptococcus pneumoniae ATCC 700669 after 18 to 24 hrs by alamar Blue assay; assay type: functional
Streptococcus pneumoniae [8] = experiment: Antibacterial activity against Streptococcus pneumoniae ATCC BAA-255 after 18 to 24 hrs by alamar Blue assay; assay type: functional
Streptococcus pneumoniae [9] = experiment: Antibacterial activity against Streptococcus pneumoniae ATCC 700671 after 18 to 24 hrs by alamar Blue assay; assay type: functional
Streptococcus pneumoniae [10] = experiment: Antibacterial activity against Streptococcus pneumoniae ATCC 700904 after 18 to 24 hrs by alamar Blue assay; assay type: functional
Streptococcus pneumoniae [11] = experiment: Antibacterial activity against Streptococcus pneumoniae ATCC 49619 after 18 to 24 hrs by alamar Blue assay; assay type: functional
Streptococcus pneumoniae [12] = experiment: Antibacterial activity against Streptococcus pneumoniae ATCC 700674 after 18 to 24 hrs by alamar Blue assay; assay type: functional
Streptococcus pneumoniae [13] = experiment: Antibacterial activity against Streptococcus pneumoniae ATCC 700675 after 18 to 24 hrs by alamar Blue assay; assay type: functional
[14] = Terminal half life in BALB/c mouse at 5 mg/kg, iv; assay type: ADME, organism-based; set-up: dose 5 mg/kg, route intravenous; conditions: in vivo, read-out: beta t1/2 (converted)
Streptococcus pneumoniae [15] = experiment: Antibacterial activity against Streptococcus pneumoniae after 18 to 24 hrs by alamar Blue assay; assay type: functional
[16] = Total clearance in BALB/c mouse at 5 mg/kg, iv; assay type: ADME, organism-based; set-up: dose 5 mg/kg, route intravenous; conditions: in vivo
[17] = AUClast in BALB/c mouse at 5 mg/kg, iv; assay type: ADME, organism-based; set-up: dose 5 mg/kg, route intravenous, time 0 - last; conditions: plasma
[18] = Apparent volume of distribution in BALB/c mouse at 5 mg/kg, iv; assay type: ADME, organism-based; set-up: dose 5 mg/kg, route intravenous; conditions: in vivo, read-out: Vz
Staphylococcus aureus [19] = experiment: Ratio of iclaprim MIC to compound MIC for TMP-resistant Staphylococcus aureus expressing DHFR F99Y mutant; assay type: functional
Streptococcus pneumoniae [20] = experiment: Antibacterial activity against Streptococcus pneumoniae ATCC 700677 after 18 to 24 hrs by alamar Blue assay; assay type: functional
Streptococcus pneumoniae [21] = experiment: Antibacterial activity against Streptococcus pneumoniae ATCC 51916 after 18 to 24 hrs by alamar Blue assay; assay type: functional
Staphylococcus aureus [22] = experiment: animal or person; conditions: ATCC 13709, in Mus musculus, iv, 24 h, read-out: PD50
Description: Antibacterial activity against Staphylococcus aureus ATCC 13709 infected in iv dosed BALB/c mouse septicemia model assessed as protection from lethal infection after 24 hrs

Streptococcus pneumoniae [23] = experiment: Antibacterial activity against Streptococcus pneumoniae ATCC 700676 after 18 to 24 hrs by alamar Blue assay; assay type: functional
[24] = Plasma concentration in BALB/c mouse at 5 mg/kg, iv measured at 2 mins by LC-MS/MS analysis; assay type: ADME, organism-based; set-up: dose 5 mg/kg, route intravenous

Dihydrofolate reductase (Staphylococcus aureus, UniProt P0A017), sequence (P0A017 whole entry): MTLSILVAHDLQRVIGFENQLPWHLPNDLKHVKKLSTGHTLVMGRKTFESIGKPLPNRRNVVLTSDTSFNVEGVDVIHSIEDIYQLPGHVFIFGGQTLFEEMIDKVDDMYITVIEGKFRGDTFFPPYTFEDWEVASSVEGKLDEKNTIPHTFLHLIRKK

Row | Compound | Ki (Dihydrofolate reductase [1]) [nM] | Ki (Dihydrofolate reductase [2]) [nM] | Ratio Ki [3] | MIC (Staphylococcus aureus [4]) [µg/mL] | MIC (Staphylococcus aureus [5]) [µg/mL] | MIC (Staphylococcus aureus [6]) [µg/mL] | further results
1 | Cc1cc2nc(-c3cscn3)n(-c3ccc4c(N)nc(N)nc4c3)c2cc1C | 0.096 | 1100 | 11500 | 16 (≈ 41.3 µM) | 2 (≈ 5.16 µM) | 2 | 
2 | Cc1cc2nc(-c3nccs3)n(-c3ccc4c(N)nc(N)nc4c3)c2cc1C |  |  |  | 0.25 (≈ 0.645 µM) | 0.015 (≈ 0.0387 µM) | 0.125 | MIC (Streptococcus pneumoniae [7]): 8 µg/mL (≈ 20.6 µM); MIC (Streptococcus pneumoniae [8]): ≤ 0.5 µg/mL; MIC (Streptococcus pneumoniae [9]): 32 µg/mL (≈ 82.6 µM); MIC (Streptococcus pneumoniae [10]): 4 µg/mL (≈ 10.3 µM); MIC (Streptococcus pneumoniae [11]): 0.25 µg/mL (≈ 0.645 µM); MIC (Streptococcus pneumoniae [12]): 8 µg/mL (≈ 20.6 µM); MIC (Streptococcus pneumoniae [13]): ≤ 0.5 µg/mL; half-life [14]: 1.4 h; MIC50 (Streptococcus pneumoniae [15]): ≤ 0.5 µg/mL; MIC90 (Streptococcus pneumoniae [15]): 8 µg/mL (≈ 20.6 µM); clearance [16]: 35 mL/min/kg; AUC(0-t) [17]: 2400 ng·h/mL; Vd [18]: 4.4 L/kg; Ratio (Staphylococcus aureus [19]): 8; MIC (Streptococcus pneumoniae [20]): ≤ 0.5 µg/mL; MIC (Streptococcus pneumoniae [21]): ≤ 0.5 µg/mL; ED50 (Staphylococcus aureus [22]): 2 mg/kg; MIC (Streptococcus pneumoniae [23]): ≤ 0.5 µg/mL; concentration at 2 min [24]: 12700 ng/mL
3 | Cc1cc2nc(C3CC3)n(-c3ccc4c(N)nc(N)nc4c3)c2cc1C |  |  |  | 8 (≈ 23.2 µM) | 0.5 (≈ 1.45 µM) |  | 
4 | Cc1cc2nc(C3CCOC3)n(-c3ccc4c(N)nc(N)nc4c3)c2cc1C (configuration not stated) | 4.2 | > 5000 |  | > 64 | 8 (≈ 21.4 µM) | 64 | 
5 | Cc1cc2nc(-c3cccn3C)n(-c3ccc4c(N)nc(N)nc4c3)c2cc1C | 4 | > 5000 |  | 64 (≈ 167 µM) | 8 (≈ 20.9 µM) | 32 | 
6 | Cc1cc2nc(-c3ccccn3)n(-c3ccc4c(N)nc(N)nc4c3)c2cc1C |  |  | 26000 | 4 (≈ 10.5 µM) | 0.125 (≈ 0.328 µM) |  | 
7 | CN(Cc1cnc2nc(N)nc(N)c2n1)c1ccc(C(=O)N[C@@H](CCC(=O)O)C(=O)O)cc1 [METHOTREXATE] |  |  |  |  | > 64 |  | 
8 | Cc1cc2nc(-c3nccs3)n(-c3cc4nc(N)nc(N)c4cc3Cl)c2cc1C |  |  | 690 | 0.25 (≈ 0.593 µM) | 0.125 (≈ 0.296 µM) |  | MIC (Streptococcus pneumoniae [7]): 4 µg/mL (≈ 9.48 µM); MIC (Streptococcus pneumoniae [8]): ≤ 0.5 µg/mL; MIC (Streptococcus pneumoniae [9]): 4 µg/mL (≈ 9.48 µM); MIC (Streptococcus pneumoniae [10]): 1 µg/mL (≈ 2.37 µM); MIC (Streptococcus pneumoniae [11]): 0.125 µg/mL (≈ 0.296 µM); MIC (Streptococcus pneumoniae [12]): 4 µg/mL (≈ 9.48 µM); MIC (Streptococcus pneumoniae [13]): ≤ 0.5 µg/mL; MIC50 (Streptococcus pneumoniae [15]): ≤ 0.5 µg/mL; MIC90 (Streptococcus pneumoniae [15]): 4 µg/mL (≈ 9.48 µM); MIC (Streptococcus pneumoniae [20]): ≤ 0.5 µg/mL; MIC (Streptococcus pneumoniae [21]): ≤ 0.5 µg/mL; MIC (Streptococcus pneumoniae [23]): ≤ 0.5 µg/mL
9 | COc1cc2nc(-c3cccs3)n(-c3cc4nc(N)nc(N)c4cc3Cl)c2cc1OC | 0.048 | > 3000 |  | 4 (≈ 8.83 µM) | 0.5 (≈ 1.1 µM) | 0.5 | 
10 | Cc1cc2nc(N3CCOCC3)n(-c3ccc4c(N)nc(N)nc4c3)c2cc1C |  |  |  | > 64 |  |  | 
11 | Cc1cc2nc(-c3cccs3)n(-c3cc4nc(N)nc(N)c4cc3Cl)c2cc1C | 0.01 | > 3000 |  | 4 (≈ 9.5 µM) | 0.03 (≈ 0.0713 µM) | 1 | MIC (Streptococcus pneumoniae [7]): 2 µg/mL (≈ 4.75 µM); MIC (Streptococcus pneumoniae [8]): ≤ 0.125 µg/mL; MIC (Streptococcus pneumoniae [9]): > 64 µg/mL; MIC (Streptococcus pneumoniae [10]): 4 µg/mL (≈ 9.5 µM); MIC (Streptococcus pneumoniae [11]): 0.5 µg/mL (≈ 1.19 µM); MIC (Streptococcus pneumoniae [12]): > 64 µg/mL; MIC (Streptococcus pneumoniae [13]): 1 µg/mL (≈ 2.38 µM); MIC50 (Streptococcus pneumoniae [15]): 1 µg/mL (≈ 2.38 µM); MIC90 (Streptococcus pneumoniae [15]): > 64 µg/mL; MIC (Streptococcus pneumoniae [20]): 0.25 µg/mL (≈ 0.594 µM); MIC (Streptococcus pneumoniae [21]): 1 µg/mL (≈ 2.38 µM); MIC (Streptococcus pneumoniae [23]): 0.25 µg/mL (≈ 0.594 µM)
12 | COc1cc2nc(-c3nccs3)n(-c3cc4nc(N)nc(N)c4cc3C)c2cc1OC |  |  | 8950 | 8 (≈ 18.5 µM) | 0.5 (≈ 1.15 µM) | 0.5 | 
13 | COc1cc2nc(-c3ccccn3)n(-c3ccc4c(N)nc(N)nc4c3)c2cc1OC | 0.36 | 841 | 2300 | > 64 | 4 (≈ 9.67 µM) | 16 | 
14 | Cc1cc2nc(-c3ccco3)n(-c3ccc4c(N)nc(N)nc4c3)c2cc1C | 0.007 | 943 |  | 1 (≈ 2.7 µM) | 0.015 (≈ 0.0405 µM) | 0.125 | 
